Results taken from patent publication US12642805B2, “Use of oxygenated cholesterol sulfates for treating at least one of insulin resistance, diabetes, and prediabetes” (Medicis Pharmaceutical Corporation, priority 2020, dated 2026).

Key:
Type in all cases: in vivo, rat
[1] = excretion mass balance after single intravenous dose; conditions: rats, 10 mg/kg intravenous, over 168 hours
Procedure: (§1) Nine male Sprague Dawley rats (Group 1) were designated for the pharmacokinetic phase, 3 male Sprague Dawley rats (Group 2) for the excretion mass balance phase, and 7 male Sprague Dawley rats (Group 3) and 9 male Long Evans rats (Group 4) for the tissue distribution phase. All animals received a single intravenous dose of [1^4C]-25HC3S at 10 mg/kg and a target radioactivity of 225 μCi/kg. Blood samples were collected from all Group 1 animals at approximately 0.083, 0.25, 0.5, 1, 2, 4, 8, 12, 24, 48, and 72 hours post-dose. Urine and feces were collected from all Group 2 animals periodically through 168 hours post-dose. […] Following blood collection, animals were euthanized by CO2 inhalation and carcasses frozen in a dry ice/hexane bath for processing by quantitative whole body autoradiography. Whole blood, plasma, urine, feces, cage rinse, and cage wash were analyzed for total radioactivity by liquid scintillation counting.

[2] = quantitative whole body autoradiography tissue distribution, intravenous, Long Evans rats; conditions: 10 mg/kg intravenous
Procedure: as §1

[3] = plasma pharmacokinetics of radioactivity after single intravenous dose; conditions: rats, 10 mg/kg single intravenous bolus
Procedure: as §1

[4] = quantitative whole body autoradiography tissue distribution, intravenous, Sprague Dawley rats; conditions: 10 mg/kg intravenous
Procedure: as §1

[5] = plasma pharmacokinetics of radioactivity after single oral (gavage) dose; conditions: rats, 75 mg/kg single oral (gavage)
Procedure: The terminal elimination phase T1/2 was 27.3 hours.

[6] = quantitative whole body autoradiography tissue distribution, oral, Sprague Dawley rats; conditions: 75 mg/kg oral
Description: No [1^4C]-25HC3S-derived radioactivity was detected in the eye (lens).

## C[C@H](CCCC(C)(C)O)[C@H]1CC[C@H]2[C@@H]3CC=C4[14CH2][C@@H](OS(=O)(=O)O)CC[C@]4(C)[C@H]3CC[C@]12C [[4-^14C]-25HC3S]
[1]
  recovered radioactivity in feces: 83.0%
[2]; Long Evans (pigmented) rats
  time by which plasma and whole blood concentrations were below quantitation limit: ≤ 336 h
[2]; Long Evans rats
  binding to pigmented or non-pigmented skin or the uveal tract: no difference in binding to pigmented or non-pigmented skin or the uveal tract
  time by which concentrations in skin and uveal tract tissues were below quantitation limit: ≤ 168 h
[3]
  mean plasma C0 (radioactivity): 25,900 ng-equiv./g
[4]
  T1/2 in plasma (QWBA phase): 44.3 h
  T1/2 in whole blood (QWBA phase): 52.2 h
  maximum plasma concentration (QWBA phase): 12,400 ng-equiv./g
  plasma:whole blood AUClast ratio: 0.79
  tissue:plasma ratio (AUClast), liver: 11.4
  tissue:plasma ratio (AUClast), small intestine (wall): 7.44
  tissues in which radioactivity was detected: all tissues except the eye (lens)
[5]
  terminal elimination phase T1/2, plasma: 27.3 h
[6]
  Skin, thymus, prostate, and pituitary tissue concentrations: < 3000 ng equiv./g
  Uveal tract and brain concentrations: approximately 1000 ng equiv./g
  tissue Tmax: ≤ 6 h
  tissue:plasma ratio (AUClast), adrenal gland: 6.64
  tissue:plasma ratio (AUClast), liver: 6.96
  tissue:plasma ratio (AUClast), small intestine (wall): 15.4
  tissues in which radioactivity was detected: all tissues except the eye (lens)
